Reference: patent US9566312B2, “Cyclic peptides and use as medicines” (priority 2012, dated 2017)
Where two headings read alike, the source gives them in different places. Starred links: 1 amine or outer side, 2 acyl side, 3 side chain; linkers in the order of their positions; H or OH if unused. Non-standard residues stand in square brackets, D forms with d. Residues, ends and D or L forms follow the SMILES beside them. X10 = C[C@H](CCCOC(=O)NC1CCN(C)CC1)[C@@H](C(=O)[*:2])N(C)[*:1]; X25 = CCN1CCO[C@H](COC[C@@H](C)[C@@H](C(=O)[*:2])N(C)[*:1])C1; X1 = COC[C@@H]1CN(C[C@H](C)[C@@H](C(=O)[*:2])N(C)[*:1])CCO1; X22 = C[C@H](CN1CCN(C2CCC2)CC1)[C@@H](C(=O)[*:2])N(C)[*:1]; X63 = C[C@H](CN1CCN(C2COC2)CC1)[C@@H](C(=O)[*:2])N(C)[*:1]; X8 = COCCN1CCN(C[C@@H](C)[C@@H](C(=O)[*:2])N(C)[*:1])CC1; NMe(dihydroBmt) = CCCC[C@@H](C)[C@@H](O)[C@H](NC)C(=O)O; X21 = CCN1CCN(C[C@@H](C)[C@@H](C(=O)[*:2])N(C)[*:1])CC1; X17 = C[C@H](COCC(C)(C)O)[C@@H](C(=O)[*:2])N(C)[*:1]; MeBmt = C/C=C/C[C@@H](C)[C@@H](O)[C@H](NC)C(=O)O; X24 = C[C@H](CO)[C@@H](C(=O)[*:2])N(C)[*:1]; NMeL = CN[C@@H](CC(C)C)C(=O)O; NMeV = CN[C@H](C(=O)O)C(C)C; dNMeA = CN[C@H](C)C(=O)O; Abu = CC[C@H](N)C(=O)O

Assays:
[1] = tested on: genotype 1b subgenomic HCV replicon in Huh7.5 cells; format: cell-based, hepatitis C virus; conditions: read-out: RPLN-1b IC50
Procedure, shortened: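 Huh7.5 cells carrying genotype 1b subgenomic HCV replicon with renilla luciferase-neomycin reporter, in phenol red-free DMEM without G418. Luciferase measured after 72 h compound exposure relative to DMSO-treated cells; cytotoxicity (CC50) by Cell Titer-Glo.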

cyclophilin B (CypB) = cyclophilin B (CypB) (Homo sapiens (Human), UniProt P23284); assay: Inhibitor binding to cyclophilin proteins by SPR, CypB; parameters: unit not given here; conditions: 1:1 binding model
Sequence of cyclophilin B (CypB) (P23284 34-216): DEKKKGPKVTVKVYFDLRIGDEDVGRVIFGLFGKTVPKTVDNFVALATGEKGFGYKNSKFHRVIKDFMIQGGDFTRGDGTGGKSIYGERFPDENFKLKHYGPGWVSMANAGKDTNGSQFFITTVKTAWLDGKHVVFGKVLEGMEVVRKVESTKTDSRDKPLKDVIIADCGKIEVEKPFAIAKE
Procedure, shortened: (§1)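 SPR, single-cycle kinetics. Avi-tagged, mono-biotinylated protein on Biotin CAPture chip; running buffer 10 mM HEPES pH 7.4, 150 mM NaCl, 0.05% P20, 3% DMSO. 1 min contacts at 50 μL/min, 10 min dissociation. kon/koff/KD from 1:1 fit.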

cyclophilin A (CypA) = cyclophilin A (CypA) (Homo sapiens (Human), UniProt P62937); assay: Inhibitor binding to cyclophilin proteins by SPR, CypA; parameters: unit not given here; conditions: 1:1 binding model;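 note: Single-cycle kinetics on a Biacore T200, compound injected at several concentrations for 1 min each at 50 µL/min, then 10 min dissociation, in HEPES pH 7.4 buffer with 3% DMSO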
Sequence of cyclophilin A (CypA) (P62937 whole entry): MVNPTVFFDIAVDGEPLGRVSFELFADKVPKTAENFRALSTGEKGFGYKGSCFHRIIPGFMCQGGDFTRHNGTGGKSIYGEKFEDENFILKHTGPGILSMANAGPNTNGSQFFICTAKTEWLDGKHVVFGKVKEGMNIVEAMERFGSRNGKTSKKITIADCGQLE

CypF = CypF (Homo sapiens (Human), UniProt P30405); assay: Inhibitor binding to cyclophilin proteins by SPR, CypF; conditions: 1:1 binding model
Sequence of CypF (P30405 30-207): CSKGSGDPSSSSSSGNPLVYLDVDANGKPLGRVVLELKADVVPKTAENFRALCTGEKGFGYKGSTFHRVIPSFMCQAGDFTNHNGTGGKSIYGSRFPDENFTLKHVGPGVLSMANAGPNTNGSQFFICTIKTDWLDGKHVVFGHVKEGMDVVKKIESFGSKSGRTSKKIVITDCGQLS
Procedure, shortened: as §1

[2] = tested on: peripheral blood mononuclear cells (PBMC); assay: Anti-proliferative or immunosuppressive activity, BrdU incorporation in PHA-stimulated PBMC; format: cell-based; conditions: PHA 3 μg/ml, 60 hour compound treatment; read-out: EMV PBMC IC50
Procedure, shortened: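 Fresh PBMCs from two donors, 30,000 per well in X-VIVO 15 medium, stimulated with 3 μg/ml PHA to drive T-cell proliferation. Proliferation measured as BrdU incorporation into DNA by BrdU ELISA.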

CYP3A4 = CYP3A4 (Homo sapiens (Human), UniProt P08684); assay: Time-dependent inhibition of CYP3A4;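 note: Two-step in vitro assay, kobs derived from residual CYP3A4 activity versus preincubation time per concentration, then kinact and KI by nonlinear fit of kobs against concentration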
Sequence of CYP3A4 (P08684 whole entry): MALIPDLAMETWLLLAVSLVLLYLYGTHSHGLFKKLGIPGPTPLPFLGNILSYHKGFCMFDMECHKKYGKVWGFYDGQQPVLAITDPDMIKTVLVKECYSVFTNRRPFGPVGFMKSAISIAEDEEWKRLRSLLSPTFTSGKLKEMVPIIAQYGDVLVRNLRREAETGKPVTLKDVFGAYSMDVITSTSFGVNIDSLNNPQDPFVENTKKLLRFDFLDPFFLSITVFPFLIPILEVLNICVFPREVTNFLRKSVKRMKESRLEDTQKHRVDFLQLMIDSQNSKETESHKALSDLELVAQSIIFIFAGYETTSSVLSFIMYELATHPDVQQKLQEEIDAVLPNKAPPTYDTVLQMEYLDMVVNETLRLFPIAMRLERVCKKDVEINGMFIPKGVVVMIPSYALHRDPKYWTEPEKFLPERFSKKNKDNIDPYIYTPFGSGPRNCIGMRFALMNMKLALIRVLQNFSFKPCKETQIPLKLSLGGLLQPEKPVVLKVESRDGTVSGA
Description: Method 5: Measuring Time-Dependent Inhibition of CYP3A4
The CYP3A4 time dependent inhibition potential of various inhibitors was determined by a two step in vitro assay. […] The inactivation rate constant (kobs) was obtained by plotting the activity remaining over pre-incubation time for each concentration of compound. The maximal inactivation rate (kinact) and the inactivation potency (KI) were calculated by non linear regression analysis of the inactivation rate constant (kobs) versus compound concentrations [I] curve according to the equation kobs=[kinact·[I]]/[KI+[I]]

[3] = molecular target: organic anion transporting polypeptide 1B1 (OATP1B1) (Homo sapiens (Human), UniProt Q9Y6L6); assay: OATP assay in CHO-OATP1B1 cells;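 note: inhibition of probe substrate uptake into the cells, ten minutes exposure, accumulated substrate read by fluorescence once cells were lysed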
Sequence of organic anion transporting polypeptide 1B1 (OATP1B1) (Q9Y6L6 whole entry): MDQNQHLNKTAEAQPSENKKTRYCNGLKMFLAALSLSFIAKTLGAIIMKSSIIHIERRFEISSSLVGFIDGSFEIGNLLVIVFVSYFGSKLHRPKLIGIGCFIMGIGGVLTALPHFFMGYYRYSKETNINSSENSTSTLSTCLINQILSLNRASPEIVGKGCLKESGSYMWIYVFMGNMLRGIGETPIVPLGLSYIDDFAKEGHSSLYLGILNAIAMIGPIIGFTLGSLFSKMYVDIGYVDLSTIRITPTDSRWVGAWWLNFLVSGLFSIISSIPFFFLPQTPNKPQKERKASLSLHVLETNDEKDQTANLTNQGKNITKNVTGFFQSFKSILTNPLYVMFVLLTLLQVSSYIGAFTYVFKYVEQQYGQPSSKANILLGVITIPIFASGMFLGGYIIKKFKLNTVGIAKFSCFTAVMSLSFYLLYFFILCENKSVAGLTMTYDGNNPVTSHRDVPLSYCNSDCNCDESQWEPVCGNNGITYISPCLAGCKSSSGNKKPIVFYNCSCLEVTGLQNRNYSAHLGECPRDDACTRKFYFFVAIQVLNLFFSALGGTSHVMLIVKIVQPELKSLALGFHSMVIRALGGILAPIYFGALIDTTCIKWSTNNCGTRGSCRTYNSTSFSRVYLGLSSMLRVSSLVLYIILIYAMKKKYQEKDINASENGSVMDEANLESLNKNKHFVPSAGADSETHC

[4] = genotype 1b replicon, 72 h incubation

| SMILES | IC50 [1] [µM] | CypB Kd (cyclophilin B (CypB)) | CypA Kd (cyclophilin A (CypA)) | CypF Kd (CypF) [µM] | IC50 [2] [µM] | Ki (CYP3A4) [µM] | IC50 [3] [µM] | IC50 [1, 4] [µM] | NIM TDI, result in words (CYP3A4; probe substrate midazolam) | KI (inactivation) (CYP3A4) [µM] | NIM TDI kinact/Ki (CYP3A4; probe substrate midazolam) [M⁻¹ s⁻¹] |
| --- | --- | --- | --- | --- | --- | --- | --- | --- | --- | --- | --- |
| C/C=C/C[C@@H](C)[C@@H](O)[C@H]1C(=O)N[C@@H](CC)C(=O)N(C)[C@H](C)C(=O)N(C)[C@@H]([C@H](C)CO[C@H]2CCOC2)C(=O)N[C@@H](C(C)C)C(=O)N(C)[C@@H](CC(C)C)C(=O)N[C@@H](C)C(=O)N[C@H](C)C(=O)N(C)[C@@H](CC(C)C)C(=O)N(C)[C@@H](CC(C)C)C(=O)N(C)[C@@H](C(C)C)C(=O)N1C (stereo in doubt) [Compound 2.16] | 0.025 | 0.5 | 1.0 | 0.0004 | 13.7 | > 50 | 1.9 |  |  |  |  |
| C/C=C/C[C@@H](C)[C@@H](O)[C@H]1C(=O)N[C@@H](CC)C(=O)N(C)[C@H](C)C(=O)N(C)[C@@H]([C@H](C)CO)C(=O)N[C@@H](C(C)C)C(=O)N(C)[C@@H](CC(C)C)C(=O)N[C@@H](C)C(=O)N[C@H](C)C(=O)N(C)[C@@H](CC(C)C)C(=O)N(C)[C@@H](CC(C)C)C(=O)N(C)[C@@H](C(C)C)C(=O)N1C [Compound 2.5.1, 3-[D-Ala]-4-[(2S,3S)-4-hydroxy-3-methyl-2-(methylamino)butanoyl]-cyclosporin] (cyclo(A[dA][NMeL][NMeL][NMeV][MeBmt][Abu][dNMeA][X24]V[NMeL])) |  | 3.5 | 4.8 | 0.0022 | 6.8 |  | 3.6 | 0.4 | No TDI |  |  |
| C/C=C/C[C@@H](C)[C@@H](O)[C@H]1C(=O)N[C@@H](CC)C(=O)N(C)[C@H](C)C(=O)N(C)[C@@H]([C@H](C)CN2CCN(CCOC)CC2)C(=O)N[C@@H](C(C)C)C(=O)N(C)[C@@H](CC(C)C)C(=O)N[C@@H](C)C(=O)N[C@H](C)C(=O)N(C)[C@@H](CC(C)C)C(=O)N(C)[C@@H](CC(C)C)C(=O)N(C)[C@@H](C(C)C)C(=O)N1C [Compound 2.5.10, 3-[D-Ala]-4[(2S,3R)-2-Amino-4-[4-(2-methoxy-ethyl)-piperazin-1-yl]-3-methyl-butanoyl]-cyclosporin] (cyclo([MeBmt][Abu][dNMeA][X8]V[NMeL]A[dA][NMeL][NMeL][NMeV])) | 0.039 | 1.2 | 1.2 | 0.0009 | 16.8 |  | 6.1 |  |  | > 50 |  |
| C/C=C/C[C@@H](C)[C@@H](O)[C@H]1C(=O)N[C@@H](CC)C(=O)N(C)[C@H](C)C(=O)N(C)[C@@H]([C@H](C)CN2CCN(C3COC3)CC2)C(=O)N[C@@H](C(C)C)C(=O)N(C)[C@@H](CC(C)C)C(=O)N[C@@H](C)C(=O)N[C@H](C)C(=O)N(C)[C@@H](CC(C)C)C(=O)N(C)[C@@H](CC(C)C)C(=O)N(C)[C@@H](C(C)C)C(=O)N1C [Compound 2.5.11] (cyclo(A[dA][NMeL][NMeL][NMeV][MeBmt][Abu][dNMeA][X63]V[NMeL])) |  | 1.2 | 1.6 | 0.001 | 13.9 | > 50 | 1.17 | 0.05 |  |  |  |
| C/C=C/C[C@@H](C)[C@@H](O)[C@H]1C(=O)N[C@@H](CC)C(=O)N(C)[C@H](C)C(=O)N(C)[C@@H]([C@H](C)CN2CCN(CC)CC2)C(=O)N[C@@H](C(C)C)C(=O)N(C)[C@@H](CC(C)C)C(=O)N[C@@H](C)C(=O)N[C@H](C)C(=O)N(C)[C@@H](CC(C)C)C(=O)N(C)[C@@H](CC(C)C)C(=O)N(C)[C@@H](C(C)C)C(=O)N1C [Compound 2.5.13, 3-[D-Ala]-4[(2S,3R)-2-Amino-4-(4-ethyl-piperazin-1-yl)-butanoyl]-cyclosporin] (cyclo(A[dA][NMeL][NMeL][NMeV][MeBmt][Abu][dNMeA][X21]V[NMeL])) |  | 0.8 | 0.9 | 0.0005 | 5.3 | > 50 | 4.56 | 0.05 |  |  |  |
| C/C=C/C[C@@H](C)[C@@H](O)[C@H]1C(=O)N[C@@H](CC)C(=O)N(C)[C@H](C)C(=O)N(C)[C@@H]([C@H](C)CN2CCN(C3CCC3)CC2)C(=O)N[C@@H](C(C)C)C(=O)N(C)[C@@H](CC(C)C)C(=O)N[C@@H](C)C(=O)N[C@H](C)C(=O)N(C)[C@@H](CC(C)C)C(=O)N(C)[C@@H](CC(C)C)C(=O)N(C)[C@@H](C(C)C)C(=O)N1C [Compound 2.5.14, 3-[D-Ala]-4[(2S,3R)-2-Amino-4-(4-cyclobutyl-piperazin-1-yl)-butanoyl]-cyclosporin] (cyclo(A[dA][NMeL][NMeL][NMeV][MeBmt][Abu][dNMeA][X22]V[NMeL])) |  | 0.7 | 1.0 | 0.0005 | 8.1 | > 50 | 5.2 | 0.032 |  |  |  |
| CCCC[C@@H](C)[C@@H](O)[C@H]1C(=O)N[C@@H](CC)C(=O)N(C)[C@H](C)C(=O)N(C)[C@@H]([C@H](C)CN2CCN(C3CCC3)CC2)C(=O)N[C@@H](C(C)C)C(=O)N(C)[C@@H](CC(C)C)C(=O)N[C@@H](C)C(=O)N[C@H](C)C(=O)N(C)[C@@H](CC(C)C)C(=O)N(C)[C@@H](CC(C)C)C(=O)N(C)[C@@H](C(C)C)C(=O)N1C [Compound 2.5.15, 1-dihydro-3-[D-Ala]-4[(2S,3R)-2-Amino-4-(4-cyclobutyl-piperazin-1-yl)-butanoyl]-cyclosporin] (cyclo([NMe(dihydroBmt)][Abu][dNMeA][X22]V[NMeL]A[dA][NMeL][NMeL][NMeV])) | 0.018 | 0.7 | 1.4 | 0.0006 | 7.6 |  |  |  |  | > 50 |  |
| C/C=C/C[C@@H](C)[C@@H](O)[C@H]1C(=O)N[C@@H](CC)C(=O)N(C)[C@H](C)C(=O)N(C)[C@@H]([C@H](C)COCC(C)(C)O)C(=O)N[C@@H](C(C)C)C(=O)N(C)[C@@H](CC(C)C)C(=O)N[C@@H](C)C(=O)N[C@H](C)C(=O)N(C)[C@@H](CC(C)C)C(=O)N(C)[C@@H](CC(C)C)C(=O)N(C)[C@@H](C(C)C)C(=O)N1C [Compound 2.7, 3-[D-Ala]-4-[(2S,3S)-4-(2-hydroxy-2-methylpropoxy)-3-methyl-2-(methylamino)butanoyl]-cyclosporin] (cyclo(A[dA][NMeL][NMeL][NMeV][MeBmt][Abu][dNMeA][X17]V[NMeL])) |  | 1.2 | 2.5 | 0.0009 |  |  | 1.8 |  |  |  | 25 |
| C/C=C/C[C@@H](C)[C@@H](O)[C@H]1C(=O)N[C@@H](CC)C(=O)N(C)[C@H](C)C(=O)N(C)[C@@H]([C@@H](C)CN2CCO[C@H](COC)C2)C(=O)N[C@@H](C(C)C)C(=O)N(C)[C@@H](CC(C)C)C(=O)N[C@@H](C)C(=O)N[C@H](C)C(=O)N(C)[C@@H](CC(C)C)C(=O)N(C)[C@@H](CC(C)C)C(=O)N(C)[C@@H](C(C)C)C(=O)N1C [Compound 2.17.8, 3-[D-Ala]-4[(2S,3S)-2-Amino-4-((S)-2-methoxymethyl-morpholin-4-yl)-3-methyl-butanoyl]-cyclosporin] (cyclo(A[dA][NMeL][NMeL][NMeV][MeBmt][Abu][dNMeA][X1]V[NMeL])) |  | 0.7 | 1.2 | 0.0006 | 36.4 | > 50 |  | 0.022 |  |  |  |
| C/C=C/C[C@@H](C)[C@@H](O)[C@H]1C(=O)N[C@@H](CC)C(=O)N(C)[C@H](C)C(=O)N(C)[C@@H]([C@H](C)CCCOC(=O)NC2CCN(C)CC2)C(=O)N[C@@H](C(C)C)C(=O)N(C)[C@@H](CC(C)C)C(=O)N[C@@H](C)C(=O)N[C@H](C)C(=O)N(C)[C@@H](CC(C)C)C(=O)N(C)[C@@H](CC(C)C)C(=O)N(C)[C@@H](C(C)C)C(=O)N1C [Compound 2.19.8, 3-[D-Ala]-4-[(2S,3R)-3-methyl-2-(methylamino)-6-(((1-methylpiperidin-4-yl)carbamoyl)oxy)hexanoyl]-cyclosporin] (cyclo(A[dA][NMeL][NMeL][NMeV][MeBmt][Abu][dNMeA][X10]V[NMeL])) |  | 0.4 | 0.8 | 0.0004 |  | > 50 | 7.8 |  |  |  |  |
| C/C=C/C[C@@H](C)[C@@H](O)[C@H]1C(=O)N[C@@H](CC)C(=O)N(C)[C@H](C)C(=O)N(C)[C@@H]([C@H](C)COC[C@@H]2CN(CC)CCO2)C(=O)N[C@@H](C(C)C)C(=O)N(C)[C@@H](CC(C)C)C(=O)N[C@@H](C)C(=O)N[C@H](C)C(=O)N(C)[C@@H](CC(C)C)C(=O)N(C)[C@@H](CC(C)C)C(=O)N(C)[C@@H](C(C)C)C(=O)N1C [Compound 2.20.1, 3-[D-Ala]-4-[(2S,3S)-4-(((S)-4-ethylmorpholin-2-yl)methoxy)-3-methyl-2-(methylamino)butanoyl]-cyclosporin] (cyclo(A[dA][NMeL][NMeL][NMeV][MeBmt][Abu][dNMeA][X25]V[NMeL])) |  | 0.7 | 0.7 | 0.0005 |  |  | 1.9 |  |  |  | 6.7 |
